Assay results from BindingDB's records for PubMed 37302340 (Chengdu University of Traditional Chinese Medicine).

Molecular target: 5'-nucleotidase CD73 (Homo sapiens) (UniProt P21589)
Assay: Binding affinity to human recombinant CD73 expressed in Sf9 cells assessed as inhibition constant by malachite green based spectrophotometer assay

Sequence of 5'-nucleotidase CD73 (Homo sapiens) (P21589 whole entry, looked up): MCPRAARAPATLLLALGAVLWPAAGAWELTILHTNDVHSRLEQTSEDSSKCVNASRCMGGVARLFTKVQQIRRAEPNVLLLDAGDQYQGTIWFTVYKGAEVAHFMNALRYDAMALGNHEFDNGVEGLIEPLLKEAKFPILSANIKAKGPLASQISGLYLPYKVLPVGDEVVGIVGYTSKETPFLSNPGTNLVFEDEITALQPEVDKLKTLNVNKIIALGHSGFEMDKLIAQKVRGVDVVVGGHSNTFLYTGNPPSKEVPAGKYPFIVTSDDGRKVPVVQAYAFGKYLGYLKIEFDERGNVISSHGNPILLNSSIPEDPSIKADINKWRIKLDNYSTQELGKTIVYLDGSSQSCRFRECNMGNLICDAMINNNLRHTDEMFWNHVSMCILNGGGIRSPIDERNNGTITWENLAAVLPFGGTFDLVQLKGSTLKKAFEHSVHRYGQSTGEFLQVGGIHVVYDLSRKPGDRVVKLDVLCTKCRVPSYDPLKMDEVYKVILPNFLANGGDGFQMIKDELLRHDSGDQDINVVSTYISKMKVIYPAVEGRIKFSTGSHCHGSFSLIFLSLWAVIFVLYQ

Ki: 97 nM
Structure (SMILES): CCN(CC)c1nc(Cl)nc2c1ncn2[C@@H]1O[C@H](COCP(=O)(O)OP(=O)(O)C(Br)(Br)P(=O)(O)O)[C@@H](O)[C@H]1O
